Results reported in the supplement of paper PMC13380429.

Columns and labels:
Conditions in all cases: 72 h
U2OS [1] = assay: cell viability relative to DMSO; higher = less toxic
Caco-2 [2] = assay: as above
Calu-3 [3] = assay: as above
HepG2 [4] = assay: as above
Vero E6 [5] = assay: as above
U2OS [6] = assay: relative viability EC50 (midpoint between 100% and the lowest measured viability); higher = less toxic
Caco-2 [7] = assay: as above
Calu-3 [8] = assay: as above
HepG2 [9] = assay: as above
Vero E6 [10] = assay: as above
U2OS [11] = assay: drug sensitivity score (DSS) for viability; higher = more toxic; extreme values may be limits of the assay
Caco-2 [12] = assay: as above
Calu-3 [13] = assay: as above
HepG2 [14] = assay: as above
Vero E6 [15] = assay: as above

SMILES | cell viability (U2OS [1]; 1 nM) [%] | cell viability (U2OS [1]; 10 nM) [%] | cell viability (U2OS [1]; 100 nM) [%] | cell viability (U2OS [1]; 1000 nM) [%] | cell viability (U2OS [1]; 10000 nM) [%] | cell viability (Caco-2 [2]; 1 nM) [%] | cell viability (Caco-2 [2]; 10 nM) [%] | cell viability (Caco-2 [2]; 100 nM) [%] | cell viability (Caco-2 [2]; 1000 nM) [%] | cell viability (Caco-2 [2]; 10000 nM) [%] | cell viability (Calu-3 [3]; 1 nM) [%] | cell viability (Calu-3 [3]; 10 nM) [%] | cell viability (Calu-3 [3]; 100 nM) [%] | cell viability (Calu-3 [3]; 1000 nM) [%] | cell viability (Calu-3 [3]; 10000 nM) [%] | cell viability (HepG2 [4]; 1 nM) [%] | cell viability (HepG2 [4]; 10 nM) [%] | cell viability (HepG2 [4]; 100 nM) [%] | cell viability (HepG2 [4]; 1000 nM) [%] | cell viability (HepG2 [4]; 10000 nM) [%] | cell viability (Vero E6 [5]; 1 nM) [%] | cell viability (Vero E6 [5]; 10 nM) [%] | cell viability (Vero E6 [5]; 100 nM) [%] | cell viability (Vero E6 [5]; 1000 nM) [%] | cell viability (Vero E6 [5]; 10000 nM) [%] | relative viability EC50 (U2OS [6]) [µM] | relative viability EC50 (Caco-2 [7]) [µM] | relative viability EC50 (Calu-3 [8]) [µM] | relative viability EC50 (HepG2 [9]) [µM] | relative viability EC50 (Vero E6 [10]) [µM] | drug sensitivity score (U2OS [11]) | drug sensitivity score (Caco-2 [12]) | drug sensitivity score (Calu-3 [13]) | drug sensitivity score (HepG2 [14]) | drug sensitivity score (Vero E6 [15])
COC(=O)c1ccc2c(c1)NC(=O)/C2=C(\Nc1ccc(N(C)C(=O)CN2CCN(C)CC2)cc1)c1ccccc1 [nintedanib] | 101 | 101 | 97.1 | 104 | 94 | 93.1 | 108 | 102 | 94.7 | 107 | 106 | 98 | 102 | 101 | 90.4 | 98.9 | 101 | 103 | 91.2 | 80.3 | 110 | 102 | 106 | 100 | 98.5 | > 10 | > 10 | > 10 | > 10 | > 10 | 0 | 0 | 0 | 1.5 | 0
COc1ccc2[nH]c(SCc3ncc(C)c(OC)c3C)nc2c1 [omeprazole-sulfide] | 96.8 | 97.8 | 96.5 | 102 | 96.8 | 104 | 96.1 | 113 | 96 | 101 | 89.7 | 102 | 101 | 103 | 90.6 | 105 | 99.6 | 99 | 94.4 | 102 | 106 | 89.6 | 87.8 | 94.9 | 95.7 | > 10 | > 10 | > 10 | > 10 | > 10 | 0 | 0 | 0 | 0 | 0
CNC(=O)c1ccc2cc([C@@]3(O)CCn4cncc43)ccc2c1 [orteronel] | 99.8 | 99 | 101 | 99 | 98.9 | 88.1 | 91.3 | 94.2 | 99.8 | 96.6 | 102 | 108 | 99.4 | 105 | 108 | 103 | 104 | 90.1 | 104 | 90 | 99.7 | 104 | 99.8 | 100 | 94.6 | > 10 | > 10 | > 10 | > 10 | > 10 | 0 | 0 | 0 | 0 | 0
